In assay [1] the test system is haemolysis abilities of Staphylococcus aureus. The assay can be described thus: Blood agar plate-based haemolysis assay. It is filed as cell-based. How it is done:
FIG. 3: Blood agar plate-based assay illustrating that beta-lactones have an effect on the haemolysis abilities of Staphylococcus aureus. 2.5 μL of S. aureus LB dilution (OD600=0.13 corresponding to approx. 1×10^8 cfu/ml) and 2.5 μL DMSO/lactone in DMSO were applied on Whatman Cards placed on 5% sheep blood agar plates (Heipha Diagnostika, Eppelheim, Germany) and incubated at 37° C. over night. A) Direct comparison of beta-lactones as shown in FIG. 2 at a total amount of 250 nmol applied on Whatman Cards. B) Dose down with beta-lactone compounds D3, E2 and G2 at applied concentrations of 100 mM, 50 mM, 25 mM, 12.5 mM, 6.25 mM and 0 mM (corresponding to total amounts of 250 nmol, 125 nmol, 62.5 nmol, 31.3 nmol, 15.6 nmol and 0 nmol, respectively).
2.5 μl, of S. aureus LB dilution (OD600 0.13 corresponding to approx. 1×10^8 cfu/ml) and 2.5 μL DMSO/beta-lactone in DMSO were applied on Whatman Cards placed on 5% sheep blood agar plates (Heipha Diagnostika, Eppelheim, Germany) and incubated at 37° C. over night. FIG. 3A directly compares the β-lactones at a total amount of 250 nmol applied on Whatman Cards. […] For D3 almost no haemolysis is observed down to a total amount of 125 nmol lactone. FIG. 5 illustrates the haemolytic activity of beta-lactone compounds D3, E2 and G2 plotted against the total amount of the respective beta-lactone, whereby a haemolysis zone size of 1.5 mm was set as 100% haemolytic activity. The data shown in FIG. 5 has been corroborated by further experimental testing.
Haemolysis was tested on blood agar plates (5% sheep blood; Heipha Diagnostika, Eppelheim, Germany). Sterile circles of Whatman cards (No. Y) with 5 mm diameter were placed on agar plates and inoculated with 2.5 μL of the corresponding beta-lactone/DMSO and 2.5 μL stationary phase culture of S. aureus diluted to […]. The plates were incubated over night at 37° C. and the diameters of the zones around the bacterial colonies were precisely measured using a vernier caliper.

Assay [2] relates to extracellular DNase of S. aureus. Nature of the assay: DNase assay using DNA containing agar plates. It is filed as cell-based, Staphylococcus aureus. The following applies: 250 nmol. The text has this: FIG. 4: Agar plate-based virulence assays.
A dose down in FIG. 5 indicates the different potencies of structurally diverse ClpP inhibitors for E2, G2 and D3. […] Extracellular DNase also is part of the S. aureus virulence factors. Its purpose is to destroy the hosts DNA and provide a nutritional source for S. aureus.

In assay [3] the test system is β-Ketoacyl acyl carrier protein synthase II (KAS II). The assay can be described thus: ABPP labeling of bacterial proteomes, KAS II. It is filed as binding, L. welshimeri, B. subtilis. To be noted: 50 μM probe, FIGS. 9A and 9B. The text has this: The library of beta-lactones to be tested comprised compounds with aliphatic or aromatic substitutions varying in length and branching. To evaluate the target selectivity, the beta-lactones were screened against several gram-positive and gram-negative bacterial proteomes including Pseudomonas putida, Listeria welshimeri, Bacillus licheniformis, Bacillus subtilis and Escherichia coli, which are phylogenetically related to pathogenic strains. In addition, mouse liver cytosol was included as an eukaryotic reference proteome. Initial labeling experiments were carried out by adding individual probes at 50 μM concentration to the proteome which is sufficient to achieve full saturation of most targets. […] As an example, labeling of L. welshimeri cytosolic and membrane proteomes as well as B. subtilis cytosolic proteome with a subset of the most complementary probes is shown in FIGS. 9A and 9B. […] Most of the targeted proteins were of low abundance as shown by the direct comparison of the relative intensities observed with Coomassie staining vs. fluorescence scanning (FIG. 11).
Proteome samples were adjusted to a final concentration of 1 mg protein/mL by dilution in PBS prior to probe labeling. […]

Assay [4] has as its target T1, ClpP (Staphylococcus aureus, UniProt Q2G036).
T1 construct: endogenous in cells
T1 sequence (Q2G036 1-195): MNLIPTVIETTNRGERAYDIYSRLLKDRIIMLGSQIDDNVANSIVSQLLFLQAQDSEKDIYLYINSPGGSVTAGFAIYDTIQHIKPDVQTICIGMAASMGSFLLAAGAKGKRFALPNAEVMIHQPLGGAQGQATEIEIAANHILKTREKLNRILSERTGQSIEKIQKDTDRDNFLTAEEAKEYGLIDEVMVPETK
The assay can be described thus: In vivo labelling of the proteome of S. aureus. It is filed as cell-based. How it is done: FIG. 16: In vivo labelling of the proteome of S. aureus with beta-lactones. Probes were applied at a certain concentration to approx. 2×10^9 cfu of stationary phase S. aureus in 100 μL PBS and incubated for 2 h. Excess probe (beta-lactone) was removed by washing the cells 3× with 1 mL PBS each. Then the cells were lysed by sonication. ClpP has been identified by mass spectrometry from preparative SDS gels after workup and tryptic digestion. B) In vivo dose down of beta-lactones D3, E2 and G2 with S. aureus indicates strong labeling by beta-lactone D3. C) Increase of selectivity at 8.0 μM concentration.
This example relates to the in vivo labelling of the proteome of S. aureus with β-lactones. The beta-lactones were applied at a certain concentration to approx. 2×10^9 cfu of stationary phase S. aureus in 100 μL PBS and incubated for 2 h. Excess beta-lactone was removed by washing the cells 3× with 1 mL PBS each. Then the cells were lysed by sonication. […] ClpP has been identified by mass spectrometry from preparative SDS gels after workup and tryptic digestion.

Each structure is given as a SMILES string.

In the case of `C#CCCCC1OC(=O)C1CCCCCCCC=C` (stereo not drawn) [D3, trans-3-(8-nonen-1-yl)-4-(4-pentyn-1-yl)oxetan-2-one], the “potency ranking in haemolysis dose down (E2, G2, D3)” value in assay [1] (FIG. 5 dose down) was “most active”. The “total amount down to which almost no haemolysis is observed” value in assay [1] (dose down 250-15.6 nmol) stood at 125 nmol. Moreover, the “haemolytic activity of S. aureus” value in assay [1] (total amount of 250 nmol applied on Whatman Cards, 5% sheep blood agar, 37° C. over night) is “strongly reduce”. Moreover, the “amount of extracellular DNase” value in assay [2] is listed as “effect”. The “KAS II labeling” value in assay [3] was “labeled”. In assay [4] (8.0 μM concentration), the ClpP labelling entry is recorded as “still labelled” and the “off-targets (selectivity)” value is on record as “almost no off-targets are visible”. In assay [4] (stationary phase S. aureus, 2 h, dose down of D3, E2, G2), the “ClpP labelling in in vivo dose down” value was “strong labelling”.

The values above are taken from patent US9521845B2, “Beta-lactones as antibacterial agents” (LUDWIG-MAXIMILIANS-UNIVERSITÄT-MÜNCHEN, priority 2008, dated 2016).
